Target: T1, ACE, rat kidney preparations (Rattus norvegicus, UniProt P47820)
T1 construct: either compound- or vehicle-dosed rat kidney preparations; from tissue; host or cells: kidney of male Sprague-Dawley rats
T1 sequence (P47820 36-1313): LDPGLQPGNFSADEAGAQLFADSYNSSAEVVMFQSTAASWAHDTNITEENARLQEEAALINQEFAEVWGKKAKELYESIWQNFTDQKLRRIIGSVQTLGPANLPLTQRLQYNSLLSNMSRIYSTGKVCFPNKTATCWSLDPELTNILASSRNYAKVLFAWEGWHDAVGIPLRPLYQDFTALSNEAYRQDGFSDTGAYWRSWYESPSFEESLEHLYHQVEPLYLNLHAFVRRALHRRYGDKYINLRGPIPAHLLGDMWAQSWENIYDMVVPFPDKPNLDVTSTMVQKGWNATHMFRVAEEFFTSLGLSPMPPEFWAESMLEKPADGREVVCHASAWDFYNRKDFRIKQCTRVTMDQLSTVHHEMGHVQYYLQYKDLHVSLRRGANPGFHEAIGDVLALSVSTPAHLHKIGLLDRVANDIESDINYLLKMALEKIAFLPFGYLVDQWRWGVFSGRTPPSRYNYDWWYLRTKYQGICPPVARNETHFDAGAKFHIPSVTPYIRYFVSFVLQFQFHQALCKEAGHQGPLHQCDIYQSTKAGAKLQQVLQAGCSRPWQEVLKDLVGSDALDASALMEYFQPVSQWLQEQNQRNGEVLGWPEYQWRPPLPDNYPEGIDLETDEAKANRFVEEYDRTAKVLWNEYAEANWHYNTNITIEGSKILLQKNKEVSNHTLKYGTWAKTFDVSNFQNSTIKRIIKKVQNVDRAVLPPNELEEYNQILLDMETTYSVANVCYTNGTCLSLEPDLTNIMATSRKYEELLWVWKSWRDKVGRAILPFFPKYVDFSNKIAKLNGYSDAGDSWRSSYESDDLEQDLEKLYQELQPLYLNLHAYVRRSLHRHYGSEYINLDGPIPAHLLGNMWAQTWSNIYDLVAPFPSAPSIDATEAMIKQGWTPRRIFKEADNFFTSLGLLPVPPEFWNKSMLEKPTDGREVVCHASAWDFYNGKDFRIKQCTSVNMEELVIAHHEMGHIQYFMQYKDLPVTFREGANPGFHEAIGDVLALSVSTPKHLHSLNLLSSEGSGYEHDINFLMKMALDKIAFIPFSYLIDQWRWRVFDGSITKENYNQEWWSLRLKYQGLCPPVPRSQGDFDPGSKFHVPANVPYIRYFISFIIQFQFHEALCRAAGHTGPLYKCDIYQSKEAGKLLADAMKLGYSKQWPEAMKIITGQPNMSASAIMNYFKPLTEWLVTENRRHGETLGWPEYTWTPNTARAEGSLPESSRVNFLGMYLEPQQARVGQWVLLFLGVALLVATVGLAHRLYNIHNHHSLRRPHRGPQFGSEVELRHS
Test: Radiometric ACE assay with tritiated hippuryl-glycyl-glycine, rat kidney preparations
Type: biochemical
Details: 1 μM enalaprilat; compound- or vehicle-dosed rat kidney preparations

Structure (SMILES): C[C@H](N[C@@H](CCc1ccccc1)C(=O)O)C(=O)N1CCC[C@H]1C(=O)O [enalaprilat]
- inhibition of radioactive product formation: Complete inhibition
